Experimental data: PubChem BioAssay (NCI)
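These data come from cells grown in 96-well plates and exposed to compound for 48 hours at five concentrations. GI50 marks 50% less growth. TGI marks complete inhibition of growth.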

Tests used:
Experiment in all cases: growth of human tumour cells (NCI), 48 h; in the data active = GI50 below about 0.43 µM; inactive = the rest
MALME-3M melanoma = system: MALME-3M melanoma
K-562 leukemia = system: K-562 leukemia
SNB-75 CNS = system: SNB-75 CNS
BT-549 breast = system: BT-549 breast
M14 melanoma = system: M14 melanoma
UACC-62 melanoma = system: UACC-62 melanoma
HS 578T breast = system: HS 578T breast
NCI-H522 lung = system: NCI-H522 lung
HCC-2998 colon = system: HCC-2998 colon
MCF7 breast = system: MCF7 breast
SK-MEL-5 melanoma = system: SK-MEL-5 melanoma
MDA-MB-435 = system: MDA-MB-435
HCT-116 colon = system: HCT-116 colon
UACC-257 melanoma = system: UACC-257 melanoma
HT29 colon = system: HT29 colon
ACHN renal = system: ACHN renal
SK-OV-3 ovarian = system: SK-OV-3 ovarian
HOP-62 NSCLC = system: HOP-62 NSCLC
TK-10 renal = system: TK-10 renal
SF-268 CNS = system: SF-268 CNS
U251 CNS = system: U251 CNS
RXF 393 renal = system: RXF 393 renal
RPMI-8226 leukemia = system: RPMI-8226 leukemia
KM12 colon = system: KM12 colon
HCT-15 colon = system: HCT-15 colon
OVCAR-3 ovarian = system: OVCAR-3 ovarian
PC-3 prostate = system: PC-3 prostate
T-47D breast = system: T-47D breast
IGROV1 ovarian = system: IGROV1 ovarian
CAKI-1 renal = system: CAKI-1 renal
SNB-19 CNS = system: SNB-19 CNS
LOX IMVI melanoma = system: LOX IMVI melanoma
EKVX NSCLC = system: EKVX NSCLC
SW-620 colon = system: SW-620 colon
UO-31 renal = system: UO-31 renal
OVCAR-4 ovarian = system: OVCAR-4 ovarian
OVCAR-5 ovarian = system: OVCAR-5 ovarian
NCI-H460 lung = system: NCI-H460 lung
HL-60(TB) leukemia = system: HL-60(TB) leukemia
SF-295 CNS = system: SF-295 CNS
NCI-H226 lung = system: NCI-H226 lung
SF-539 CNS = system: SF-539 CNS
NCI-H23 lung = system: NCI-H23 lung
SN12C renal = system: SN12C renal
DU-145 prostate = system: DU-145 prostate
MDA-MB-231 breast = system: MDA-MB-231 breast
MOLT-4 leukemia = system: MOLT-4 leukemia
A498 renal = system: A498 renal
SR leukemia = system: SR leukemia
NCI/ADR-RES ovarian = system: NCI/ADR-RES ovarian
786-0 renal = system: 786-0 renal
CCRF-CEM leukemia = system: CCRF-CEM leukemia
OVCAR-8 ovarian = system: OVCAR-8 ovarian
SK-MEL-2 melanoma = system: SK-MEL-2 melanoma
A549 NSCLC = system: A549 NSCLC
SK-MEL-28 melanoma = system: SK-MEL-28 melanoma
COLO 205 colon = system: COLO 205 colon
HOP-92 NSCLC = system: HOP-92 NSCLC

CC1=NN(C(=O)c2nn(-c3ccc(Cl)cc3)cc2O)C(=O)C1
> 86.5 µM: TGI (NCI-H522 lung)
> 80.8 µM: TGI (UACC-62 melanoma)
> 27.9 µM: TGI (OVCAR-3 ovarian)
> 22 µM: TGI (CCRF-CEM leukemia)
> 52.2 µM: TGI (NCI/ADR-RES ovarian)
> 36.9 µM: TGI (SK-MEL-5 melanoma)
> 100 µM: TGI (K-562 leukemia) | TGI (SNB-75 CNS) | TGI (BT-549 breast) | TGI (HS 578T breast) | TGI (HCC-2998 colon) | TGI (MCF7 breast) | TGI (MDA-MB-435) | TGI (HCT-116 colon) | TGI (HT29 colon) | TGI (ACHN renal) | TGI (SK-OV-3 ovarian) | TGI (TK-10 renal) | TGI (SF-268 CNS) | TGI (U251 CNS) | TGI (KM12 colon) | TGI (HCT-15 colon) | TGI (PC-3 prostate) | TGI (T-47D breast) | TGI (SNB-19 CNS) | TGI (LOX IMVI melanoma) | TGI (EKVX NSCLC) | TGI (SW-620 colon) | TGI (UO-31 renal) | TGI (OVCAR-4 ovarian) | TGI (NCI-H23 lung) | TGI (SN12C renal) | TGI (DU-145 prostate) | TGI (MDA-MB-231 breast) | TGI (MOLT-4 leukemia) | TGI (OVCAR-8 ovarian) | TGI (SK-MEL-2 melanoma) | TGI (A549 NSCLC) | TGI (SK-MEL-28 melanoma)
> 52.7 µM: TGI (NCI-H460 lung)
> 67.5 µM: TGI (NCI-H226 lung)
> 77.6 µM: TGI (HOP-62 NSCLC)
> 76.6 µM: TGI (RXF 393 renal)
41 µM: TGI (IGROV1 ovarian)
7.97 µM: TGI (SR leukemia)
> 82.6 µM: TGI (COLO 205 colon)
28.9 µM: TGI (UACC-257 melanoma)
> 53.5 µM: TGI (M14 melanoma)
> 88.9 µM: TGI (RPMI-8226 leukemia)
7.46 µM: TGI (HL-60(TB) leukemia)
> 82 µM: TGI (A498 renal)
99.5 µM: TGI (MALME-3M melanoma)
26.4 µM: TGI (CAKI-1 renal)
> 60.4 µM: TGI (786-0 renal)
inactive: GI50 (MALME-3M melanoma) 9.29 µM | GI50 (K-562 leukemia) 0.501 µM | GI50 (SNB-75 CNS) 0.532 µM | GI50 (BT-549 breast) 0.766 µM | GI50 (M14 melanoma) 2.8 µM | GI50 (UACC-62 melanoma) 2.28 µM | GI50 (NCI-H522 lung) 1.44 µM | GI50 (HCC-2998 colon) 3.37 µM | GI50 (MCF7 breast) 4.65 µM | GI50 (SK-MEL-5 melanoma) 3.45 µM | GI50 (MDA-MB-435) 4.12 µM | GI50 (HCT-116 colon) 0.743 µM | GI50 (UACC-257 melanoma) 6.27 µM | GI50 (HT29 colon) 4.44 µM | GI50 (ACHN renal) 1.61 µM | GI50 (SK-OV-3 ovarian) 1.79 µM | GI50 (HOP-62 NSCLC) 1.13 µM | GI50 (TK-10 renal) 0.578 µM | GI50 (SF-268 CNS) 0.632 µM | GI50 (U251 CNS) 0.734 µM | GI50 (RXF 393 renal) 2.18 µM | GI50 (RPMI-8226 leukemia) 1.07 µM | GI50 (KM12 colon) 4.52 µM | GI50 (HCT-15 colon) 0.845 µM | GI50 (OVCAR-3 ovarian) 1.34 µM | GI50 (T-47D breast) 2.87 µM | GI50 (IGROV1 ovarian) 0.505 µM | GI50 (CAKI-1 renal) 1.89 µM | GI50 (SNB-19 CNS) 3.16 µM | GI50 (LOX IMVI melanoma) 2.66 µM | GI50 (EKVX NSCLC) 1.93 µM | GI50 (SW-620 colon) 4.55 µM | GI50 (UO-31 renal) 2.87 µM | GI50 (OVCAR-4 ovarian) 3 µM | GI50 (HL-60(TB) leukemia) 1.17 µM | GI50 (NCI-H226 lung) 3.17 µM | GI50 (SF-539 CNS) 1.9 µM | GI50 (NCI-H23 lung) 3.03 µM | GI50 (SN12C renal) 1.81 µM | GI50 (DU-145 prostate) 8.08 µM | GI50 (MDA-MB-231 breast) 2.75 µM | GI50 (MOLT-4 leukemia) 1.24 µM | GI50 (A498 renal) 2.92 µM | GI50 (NCI/ADR-RES ovarian) 1.83 µM | GI50 (786-0 renal) 5.33 µM | GI50 (CCRF-CEM leukemia) 0.608 µM | GI50 (OVCAR-8 ovarian) 1.49 µM | GI50 (SK-MEL-2 melanoma) 53.7 µM | GI50 (A549 NSCLC) 2.92 µM | GI50 (SK-MEL-28 melanoma) 9.13 µM | GI50 (COLO 205 colon) 3.78 µM
> 78.9 µM: TGI (OVCAR-5 ovarian)
> 87.4 µM: TGI (SF-539 CNS)
active: GI50 (HS 578T breast) 0.34 µM | GI50 (PC-3 prostate) 0.348 µM | GI50 (NCI-H460 lung) 0.41 µM | GI50 (SF-295 CNS) 0.285 µM | GI50 (SR leukemia) 0.419 µM

Cc1cc(C(O)CNC(C)CCn2cnc3c2c(=O)n(C)c(=O)n3C)ccc1O (stereo not drawn)
> 100 µM: TGI (MALME-3M melanoma) | TGI (K-562 leukemia) | TGI (SNB-75 CNS) | TGI (BT-549 breast) | TGI (M14 melanoma) | TGI (UACC-62 melanoma) | TGI (HS 578T breast) | TGI (NCI-H522 lung) | TGI (MCF7 breast) | TGI (SK-MEL-5 melanoma) | TGI (MDA-MB-435) | TGI (HCT-116 colon) | TGI (UACC-257 melanoma) | TGI (HT29 colon) | TGI (ACHN renal) | TGI (SK-OV-3 ovarian) | TGI (HOP-62 NSCLC) | TGI (TK-10 renal) | TGI (SF-268 CNS) | TGI (U251 CNS) | TGI (RXF 393 renal) | TGI (RPMI-8226 leukemia) | TGI (KM12 colon) | TGI (HCT-15 colon) | TGI (OVCAR-3 ovarian) | TGI (PC-3 prostate) | TGI (T-47D breast) | TGI (IGROV1 ovarian) | TGI (CAKI-1 renal) | TGI (SNB-19 CNS) | TGI (LOX IMVI melanoma) | TGI (EKVX NSCLC) | TGI (SW-620 colon) | TGI (UO-31 renal) | TGI (OVCAR-4 ovarian) | TGI (OVCAR-5 ovarian) | TGI (NCI-H460 lung) | TGI (HOP-92 NSCLC) | TGI (SF-295 CNS) | TGI (NCI-H226 lung) | TGI (SF-539 CNS) | TGI (NCI-H23 lung) | TGI (SN12C renal) | TGI (DU-145 prostate) | TGI (MDA-MB-231 breast) | TGI (MOLT-4 leukemia) | TGI (A498 renal) | TGI (SR leukemia) | TGI (NCI/ADR-RES ovarian) | TGI (786-0 renal) | TGI (CCRF-CEM leukemia) | TGI (OVCAR-8 ovarian) | TGI (SK-MEL-2 melanoma) | TGI (A549 NSCLC) | TGI (SK-MEL-28 melanoma) | TGI (COLO 205 colon)
